Paper PMC8765460 (Antimicrobial Agents and Chemotherapy, 2022)
Read-outs that look alike come from different tables or passages of the source.

Columns and labels:
[1] = tested on: recombinant viruses containing participant-derived integrase sequences; conditions: for Fold change in dolutegravir sensitivity: fold change in IC50 relative to wild-type, clinical cutoff 4.0
Description: HIV-1 genotyping and phenotyping of plasma samples at baseline and the first sample of the 2 required to meet CVW criteria were conducted by Monogram Biosciences (South San Francisco, CA) using PhenoSense Integrase, PhenoSense GT, and GeneSeq Integrase assays, with the PhenoSense GT Plus Integrase assay used as a backup alternative in case of initial resistance assay failure.

[2] = tested on: HIV-1 variant clones (participant-derived integrase); experiment: Clonal integrase phenotyping of variant clones (Monogram Biosciences); assay type: cell-based; conditions: fold change in IC50 relative to wild-type
[3] = target: G118R integrase-DNA complex (Human immunodeficiency virus type 1 group M subtype B, UniProt P04585, G1265R); experiment: Dissociation of 3H-labeled INSTIs from integrase-DNA complexes (scintillation proximity assay); assay type: binding, HIV-1; conditions: for t1/2 (dissociative half-life): ln 2 divided by mean koff
Description: (§1) Dissociation of INSTIs from integrase-DNA complexes was evaluated as previously described ([35]). Briefly, biotinylated viral long-terminal-repeat DNA duplexes were prepared and attached to streptavidin-coated scintillation proximity assay imaging beads. Wild-type and R263K, G118R, or G118R/E138K mutant integrase-DNA-bead complexes were formed, and unbound protein was removed. […] Relative binding (RB) was calculated as the ratio of dissociation signal to high signal and fit with the equation RB = EP + ΔRB(e^−^k^off^t), where EP is the RB endpoint, koff is the dissociation rate constant, ΔRB is the change in RB, and t is time, using the SigmaPlot program (Systat Software, San Jose, CA).

[4] = target: G118R/E138K integrase-DNA complex (Human immunodeficiency virus type 1 group M subtype B, UniProt P04585, E1285K/G1265R); experiment: as above; assay type: binding, HIV-1; conditions: for t1/2 (dissociative half-life): G118R, E138K integrase-DNA complex, ln 2 divided by mean koff
Description: as §1

[5] = target: R263K integrase-DNA complex (Human immunodeficiency virus type 1 group M subtype B, UniProt P04585, R1410K); experiment: as above; assay type: binding, HIV-1; conditions: for t1/2 (dissociative half-life): ln 2 divided by mean koff
Description: as §1

[6] = target: T1, wild-type integrase-DNA complex (Human immunodeficiency virus type 1 group M subtype B, UniProt P04585); experiment: as above; assay type: binding, HIV-1; conditions: for t1/2 (dissociative half-life): Wild-type integrase-DNA complex, ln 2 divided by mean koff; for koff: read-out: koff (mean ± SD)
Description: as §1

HIV-1 [7] = conditions: 12 participants switched at week 48
Description: Confirmed virologic withdrawal criteria were defined as 2 consecutive measurements with a decrease in plasma HIV-1 RNA of <1.0 log10 copies/mL by week 16 (unless HIV-1 RNA levels were <400 copies/mL), plasma HIV-1 RNA levels of ≥400 copies/mL at or after week 24, or plasma HIV-1 RNA levels of ≥400 copies/mL after confirmed HIV-1 RNA levels of <400 copies/mL. Participants who met CVW criteria were withdrawn from the study. For this ad hoc assessment carried out after the week 48 analysis, participants with available data through 12 September 2019 were included.

HIV-1 [8] = tested on: HIV-1; design: method as in PMID 30732940; conditions: cited from earlier work
[9] = target: T1, wild-type integrase-DNA complex; conditions: cited from earlier work
[10] = patient 1, Baseline, R263K clones (3 clones)
[11] = patient 1, Baseline, Wild-type clones (5 clones)
[12] = patient 1, CVW (wk 36), Wild-type clones (8 clones)
[13] = patient 2, Baseline, T66I clone (1 clone)
[14] = patient 2, Baseline, Wild-type clones (7 clones)
[15] = patient 2, CVW (wk 36), G118R clones (8 clones)
[16] = patient 3, Baseline, Wild-type clones (16 clones)
[17] = patient 3, CVW (wk 48), G118R, E138K, R263K clones (13 clones)
[18] = patient 3, CVW (wk 48), H51Y, G118R clones (3 clones)

C[C@@H]1CCO[C@H]2Cn3cc(C(=O)NCc4ccc(F)cc4F)c(=O)c(O)c3C(=O)N12 [Dolutegravir, dolutegravir]
change in in vitro dolutegravir resistance versus baseline levels ([1]; 6 participants with treatment-emergent INSTI resistance-associated substitutions): > 10 fold
median fold change in dolutegravir susceptibility at CVW ([1]; participants with treatment-emergent integrase substitutions (6 participants)): 25
Fold change in dolutegravir sensitivity ([1]; patient 1, Baseline, subtype C, INSTI mutation R263R/K): 1.03
Fold change in dolutegravir sensitivity ([1]; patient 1, Wk 36 (CVW), no INSTI mutation): 0.79
Fold change in dolutegravir sensitivity ([1]; patient 2, Baseline, subtype B): 1.02
Fold change in dolutegravir sensitivity ([1]; patient 2, Wk 36 (CVW), G118R): 30
Fold change in dolutegravir sensitivity ([1]; patient 3, Baseline, subtype C): 1.26
Fold change in dolutegravir sensitivity ([1]; patient 3, Wk 48 (CVW), H51H/Y, G118R, E138E/K, 263R/K): 15
Fold change in dolutegravir sensitivity ([1]; patient 4, Baseline, subtype A1, L74I): 0.93
Fold change in dolutegravir sensitivity ([1]; patient 4, Wk 48 (CVW), L74I, G118G/R, E138E/K, 148Q/R, R263R/K): 20
Fold change in dolutegravir sensitivity ([1]; patient 5, Baseline, subtype Complex): 0.59
Fold change in dolutegravir sensitivity ([1]; patient 5, Wk 60 (CVW), E138K, G140S, Q148H, N155H): >106.45
Fold change in dolutegravir sensitivity ([1]; patient 6, Baseline, subtype C, L74L/I): 0.6
Fold change in dolutegravir sensitivity ([1]; patient 6, Wk 72 (CVW), T66T/I, L74I, G118R, E138E/K): 22
Fold change in dolutegravir sensitivity ([1]; patient 7, Baseline, subtype C): 0.98
Fold change in dolutegravir sensitivity ([1]; patient 7, Wk 168 (CVW), G118R): 28
Fold change in median drug sensitivity [2, 10]: 1.81
Fold change in median drug sensitivity [2, 11]: 0.87
Fold change in median drug sensitivity [2, 12]: 0.77
Fold change in median drug sensitivity [2, 13]: 0.33
Fold change in median drug sensitivity [2, 14]: 0.93
Fold change in median drug sensitivity [2, 15]: 30.5
Fold change in median drug sensitivity [2, 16]: 1.08
Fold change in median drug sensitivity [2, 17]: 13
Fold change in median drug sensitivity [2, 18]: 11
fold increase in dissociation rate constant (koff) relative to the wild type [3]: 8.6 fold
t1/2 (dissociative half-life) [3]: 10.7 h
t1/2 (dissociative half-life) ([3]; listed as dolutegravir): ~10 h
fold increase in dissociation rate constant (koff) relative to the wild type ([4]; G118R plus E138K integrase-DNA complex): 9.0 fold
t1/2 (dissociative half-life) [4]: 10.1 h
fold increase in dissociation rate constant (koff) relative to the wild type [5]: 1.8 fold
t1/2 (dissociative half-life) [5]: 52 h
t1/2 (dissociative half-life) ([5]; listed as dolutegravir): ~50 h
t1/2 (dissociative half-life) [6]: 92 h
koff [6]: 2.1e-06 ± 1e-07 s⁻¹
INSTI resistance in participants who switched from ritonavir-boosted lopinavir to the dolutegravir regimen (HIV-1 [7]): None of the 12 participants
participants meeting CVW who developed treatment-emergent genotypic and phenotypic INSTI resistance (HIV-1 [8]; through the week 48 analysis): 2 of 11
virologic suppression (HIV-1 RNA levels of <50 copies/mL) versus comparator (HIV-1 [8]; week 48, both in combination with 2 NRTIs): superiority to ritonavir-boosted lopinavir

Cc1nnc(C(=O)NC(C)(C)c2nc(C(=O)NCc3ccc(F)cc3)c(O)c(=O)n2C)o1 [Raltegravir, raltegravir]
Fold change in median drug sensitivity [2, 10]: 1.09
Fold change in median drug sensitivity [2, 11]: 0.88
Fold change in median drug sensitivity [2, 12]: 0.89
Fold change in median drug sensitivity [2, 13]: 0.58
Fold change in median drug sensitivity [2, 14]: 1.18
Fold change in median drug sensitivity [2, 15]: 24
Fold change in median drug sensitivity [2, 16]: 1.03
Fold change in median drug sensitivity [2, 17]: 2.03
Fold change in median drug sensitivity [2, 18]: 4.43
fold increase in dissociation rate constant (koff) relative to the wild type [3]: 3.4 fold
t1/2 (dissociative half-life) [3]: 2.7 h
t1/2 (dissociative half-life) [4]: 3.2 h
fold increase in dissociation rate constant (koff) relative to the wild type [5]: no change in koff
t1/2 (dissociative half-life) [5]: 9.6 h
t1/2 (dissociative half-life) [6]: 9.2 h
koff [6]: 2.1e-05 ± 2e-06 s⁻¹
t1/2 (dissociative half-life), previously measured [9]: 8.8 h
